Earlier results on 1 compound are cited in patent US20260297106A1, “SPIROCYCLIC SUBSTITUTED OXOISOINDOLINYL PIPERIDINE-2,6-DIONE COMPOUND” (Bristol-Myers Squibb Company, priority 2023, published 2026).

The subject of data set [1] is highly immunogenic syngeneic tumors. Conditions: engineered mouse models; cited from earlier work.
The test system of a further data set is T and NK cell. Conditions: preclinical and clinical studies; cited from earlier work.

With `Nc1cccc2c1CN(C1CCC(=O)NC1=O)C2=O` (centres unmarked) [lenalidomide], the antitumor immune responses entry in data set [1] is “modestly increase antitumor immune responses”. In addition, the “T and NK cell functions” value in the data set with T and NK cell is “augment T and NK cell functions”.
